The values that follow come from US20240239790A1, “7-Morpholino-1,6-Naphthyridin-5-yl Derivatives and Pharmaceutical Compositions Thereof Useful as DNA-PK Inhibitor” (adMare Therapeutics Society, priority 2021, published 2024).

Where two headings read alike, the source gives them in different places. Some results are limits rather than exact numbers.

One data set has as its system FaDu cell line. Put plainly: Prodrug Activation in Hypoxic Stirred Tumour Cell Suspensions. Particulars: 10 μM, 4 hours.
Data set [1] deals with pH2AX induction in HCT116 ATM-/- multicellular tumour spheroids. Description: Prodrug Radiation Sensitization in Multicellular Tumour Spheroids, inhibition of pH2AX induction following radiation. The format is cell-based. Conditions: Homo sapiens, HCT-116, 20 Gy. Here is the method:
Prodrug compounds were assayed to determine their potency in 3D multicellular spheroids in media maintained under 20% vs 5% oxygen. Multicellular tumour spheroids were grown to approximately 0.5 mm in diameter and irradiated with 20 Gy in combination with inhibitor test compounds to determine their potency using HCT 116 and FaDu cell lines. Experiments were carried out in 96 well plates containing 0.7 mls of MEM media containing 10% FBS and 10 mM glucose under 5% CO2 at 37° C. Following dilution of compounds 1:1000 from DMSO stocks, compounds were serially diluted from 10 μM down to 3.5 nM and 5-10 spheroids added. 96 well plates were constantly stirred to avoid spheroids settling during the course of the experiment. Endpoints were pDNA-PK (ser 2056) or pH2AX (ser 139) status in spheroid cryosections taken 1 or 2 hours following radiation and fixed immediately in formalin. Using tumour cell lines deficient in ATM improved the assay signal to noise and gH2AX readout. Using this assay prodrug activity could be compared in the more oxygenated outer spheroid layers versus less oxygenated hypoxic central cell layers.

Data set [2] deals with T1, DNA-PK phosphorylation at Serine 2056 (Homo sapiens, UniProt P78527).
T1 construct: FaDu cells were purchased from ATCC; host or cells: FaDu
Put plainly: Cellular Assay for Inhibition of DNA-PK Phosphorylation at Serine 2056 in FaDu cells (sandwich ELISA, neocarzinostatin). Particulars: pSer2056 DNA-PK, Table 3. The data set is classed as cell-based. Here is the method:
FaDu cells were purchased from ATCC and maintained in MEM alpha medium (Life Technologies, cat. no. 12561) supplemented with 10% fetal bovine serum, and 1% GlutaMAX at 37° C. supplemented with 5% CO2. 50,000 cells were seeded to each well of a 96-well cell culture plate in 50 μL of culture medium and incubated for 16-24 hours. Three-fold serially diluted compounds were prepared in DMSO. Culture media was used to prepare compound treatments to 0.3% DMSO (dimethyl sulphoxide) content. Compound treatments were added to the cells for 1 hour prior incubation, followed by the addition of neocarzinostatin in fresh culture medium to 1 μg/mL final concentration for an additional 2 hours incubation to induce DNA DSBs (double-strand breaks). DMSO controls were incubated with fresh culture medium alone for the additional two hours incubation. The cells were then lysed and frozen at −20° C. Cell lysates were thawed on wet ice and protein concentrations quantified by BCA Protein Assay (Thermo #23225). Lysis buffer was used to normalize lysates by protein content and all lysates were then investigated by sandwich ELISA by means of DNA-PK-specific antibodies (Abcam ab44815: total DNA-PK; ab124918: phosphoserine-2056 DNA-PK) in sandwich ELISA format on the MSD S600MM platform (MesoScale Discovery). % inhibition was calculated for all data points: =1−(DATA_PT−AVERAGE(DMSO controls))/(AVERAGE(NCS controls)−AVERAGE(DMSO controls)). Logarithm of the molar concentration of compound was plotted against percent inhibition to calculate IC50 values, with curve fit settings for data fit to log(inhibitor) vs. normalized response—Variable slope using curve fit software (GraphPad Prism).
A general note: In an ELISA, binding on a coated surface is turned into a signal by an enzyme label.

Setting [3] is: 5% O2, inner layers, read-out: Prodrug 5% O2 Inner layers EC50.
The mark [4] stands for this setting: 5% O2, outer layers, read-out: Prodrug 5% O2 Outer layers EC50.
Where [5] appears, read: 20% O2, outer layers, read-out: Prodrug 20% O2 Outer layers EC50.

Method for FaDu cell line: Prodrug compounds were assayed to determine their stability and rate of activation in stirred cell suspensions under 0.2 vs 5% oxygen. Compounds were diluted 1:1000 from DMSO stocks to 10 μM final concentration in tumour cell suspensions (1% by cell volume) in MEM media containing 10% FBS, 10 mM glucose & 3.7 g/L sodium bicarbonate. Cell lines assayed included A253, A549, Detroit562, FaDu, HCT116, HEP G2, HT29, SCC25, SCC9, SiHa & TC32. Compounds and cells were then incubated for 4 hours under constant mixing at 37° C. under 5% CO2 and either 0.2 or 5% O2. Following the incubation period cellular activation of the compounds was assayed via MeOH extraction and HPLC quantification.

Broadly, the EC50 is the concentration that produces a half-maximal response. `Cn1c(Cn2nnc(-c3cnc4cc(N5CCOCC5)nc(O[C@H]5CC[C@@H](n6ccnc6)CC5)c4c3)n2)cnc1[N+](=O)[O-]` [LFA123, 4-[5-(4-imidazol-1-ylcyclohexoxy)-3-[2-[(3-methyl-2-nitro-imidazol-4-yl)methyl]tetrazol-5-yl]-1,6-naphthyridin-7-yl]morpholine]: the “Fraction of prodrug converted to active form, Hypoxic 0.2% O2” value (from here on “Fraction … Hypoxic 0.2% O2”) in the data set on FaDu cell line was “A (A is 0.15 to 1)”. The “Fraction of prodrug converted to active form, Oxic 5% O2” value (“Fraction … Oxic 5% O2” for short) with FaDu cell line is “B (B is 0.05 to 0.15)”. In addition, the EC50 in data set [1] (setting [3]), in data set [1] (setting [4]) and in data set [1] (setting [5]) was 1000 to 10000 nM throughout.

Consider `Cn1c(Cn2nnc(-c3cnc4cc(N5CCOCC5)nc(O[C@H]5CC[C@@H](Nc6ncccn6)CC5)c4c3)n2)cnc1[N+](=O)[O-]` [LFA121, N-[4-[[3-[2-[(3-Methyl-2-nitro-imidazol-4-yl)methyl]tetrazol-5-yl]-7-morpholino-1,6-naphthyridin-5-yl]oxy]cyclohexyl]pyrimidin-2-amine], for which, in the data set with FaDu cell line, the “Fraction … Hypoxic 0.2% O2” value was “A (A is 0.15 to 1)”. For the same compound, in the data set on FaDu cell line, the “Fraction … Oxic 5% O2” value is recorded as “B (B is 0.05 to 0.15)”. Moreover, the 50% effective concentration (EC50) in data set [1] (setting [3]) is 500 to 1000 nM; in data set [1] (setting [4]) it was 1000 to 10000 nM; in data set [1] (setting [5]), 1000 to 10000 nM.

For orientation: IC50 means the concentration at which inhibition is half-maximal. Consider `CS(=O)(=O)Nc1cnc2cc(N3CCOCC3)nc(O[C@H]3CC[C@@H](Nc4ncc(C5=CCNCC5)cn4)CC3)c2c1` [LFA2021, N-[7-morpholino-5-[4-[[5-(1,2,3,6-tetrahydropyridin-4-yl)pyrimidin-2-yl]amino]cyclohexoxy]-1,6-naphthyridin-3-yl]methanesulfonamide], for which the IC50 in data set [2] was in the range of 100 to 1000 nM.

Take `CN1CCc2nc(N[C@H]3CC[C@@H](Oc4nc(N5CCOCC5)cc5ncc(NS(C)(=O)=O)cc45)CC3)ccc2C1` [LFA2008, N-[5-[4-[(6-methyl-7,8-dihydro-5H-1,6-naphthyridin-2-yl)amino]cyclohexoxy]-7-morpholino-1,6-naphthyridin-3-yl]methanesulfonamide]: the IC50 in data set [2] is under 100 nM.

Consider `CN1CC[C@@H](Oc2cnc(N[C@H]3CC[C@@H](Oc4nc(N5CCOCC5)cc5ncc(NS(C)(=O)=O)cc45)CC3)nc2)C1` [LFA2037, N-[5-[4-[[5-[(3R)-1-methylpyrrolidin-3-yl]oxypyrimidin-2-yl]amino]cyclohexoxy]-7-morpholino-1,6-naphthyridin-3-yl] methanesulfonamide], for which, in data set [2], the IC50 was under 100 nM.

The compound `Oc1cnc2cc(N3CCOCC3)nc(O[C@H]3CC[C@@H](Nc4ncc(OCCN5CCOCC5)cn4)CC3)c2c1` [LFA2035, 7-morpholino-5-[4-[[5-(2-morpholinoethoxy)pyrimidin-2-yl]amino]cyclohexoxy]-1,6-naphthyridin-3-ol] showed an IC50 in data set [2] of under 100 nM.

In the case of `CS(=O)(=O)Nc1cnc2cc(N3CCOCC3)nc(O[C@H]3CC[C@@H](Nc4ncc(N5CCN(CC(F)F)CC5)cn4)CC3)c2c1` [LFA2018, N-[5-[4-[[5-[4-(2,2-difluoroethyl)piperazin-1-yl]pyrimidin-2-yl]amino]cyclohexoxy]-7-morpholino-1,6-naphthyridin-3-yl]methanesulfonamide], the IC50 in data set [2] is under 100 nM.

In the case of `CS(=O)(=O)Nc1cnc2cc(N3CCOCC3)nc(O[C@H]3CC[C@@H](Nc4ncc(OCCN5CCNCC5)cn4)CC3)c2c1` [LFA2022, N-[7-morpholino-5-[4-[[5-(2-piperazin-1-ylethoxy)pyrimidin-2-yl]amino]cyclohexoxy]-1,6-naphthyridin-3-yl]methanesulfonamide], the concentration for half-maximal inhibition (IC50) in data set [2] is under 100 nM.

With `CN1CCc2nc(NC3CCC(Oc4nc(N5CCOCC5)cc5ncc(NS(C)(=O)=O)cc45)CC3)ncc2C1` (centres unmarked) [LFA2007, N-[5-[4-[(6-methyl-7,8-dihydro-5H-pyrido[4,3-d]pyrimidin-2-yl)amino]cyclohexoxy]-7-morpholino-1,6-naphthyridin-3-yl]methanesulfonamide], in data set [2], the IC50 is under 100 nM.

With `CS(=O)(=O)Nc1cnc2cc(N3CCOCC3)nc(O[C@H]3CC[C@@H](Nc4ncc(CCN5CCOCC5)cn4)CC3)c2c1` [LFA2030, N-[7-morpholino-5-[4-[[5-(2-morpholinoethyl)pyrimidin-2-yl]amino]cyclohexoxy]-1,6-naphthyridin-3-yl]methanesulfonamide], in data set [2], the IC50 is under 100 nM.

In data set [2], `CN1CC[C@H](Oc2cnc(N[C@H]3CC[C@@H](Oc4nc(N5CCOCC5)cc5ncc(NS(C)(=O)=O)cc45)CC3)nc2)C1` [LFA2036, N-[5-[4-[[5-[(3S)-1-methylpyrrolidin-3-yl]oxypyrimidin-2-yl]amino]cyclohexoxy]-7-morpholino-1,6-naphthyridin-3-yl] methanesulfonamide] yielded an IC50 of under 100 nM.

Regarding `CN1CCN(c2cnc(N[C@H]3CC[C@@H](Oc4nc(N5CCOCC5)cc5ncc(O)cc45)CC3)nc2)CC1` [LFA2080, 5-[4-[[5-(4-methylpiperazin-1-yl)pyrimidin-2-yl]amino]cyclohexoxy]-7-morpholino-1,6-naphthyridin-3-ol], in data set [2], the IC50 is under 100 nM.

Regarding `Cc1nc(N[C@H]2CC[C@@H](Oc3nc(N4CCOCC4)cc4ncc(NS(C)(=O)=O)cc34)CC2)ncc1N1CCN(C)CC1` [LFA2038, N-[5-[4-[[4-methyl-5-(4-methylpiperazin-1-yl)pyrimidin-2-yl]amino]cyclohexoxy]-7-morpholino-1,6-naphthyridin-3-yl]methanesulfonamide], the IC50 in data set [2] was under 100 nM.

`CN(C)CCOc1cnc(N[C@H]2CC[C@@H](Oc3nc(N4CCOCC4)cc4ncc(O)cc34)CC2)nc1` [LFA2079, 5-[4-[[5-[2-(dimethylamino)ethoxy]pyrimidin-2-yl]amino]cyclohexoxy]-7-morpholino-1,6-naphthyridin-3-ol] came in with an IC50 in data set [2] of under 100 nM.

In the case of `Cn1c(Cn2cnnc2-c2cnc3cc(N4CCOCC4)nc(OC4CCC(Nc5ncccn5)CC4)c3c2)cnc1[N+](=O)[O-]` (centres unmarked) [LFA135, N-[4-[[3-[4-[(3-Methyl-2-nitro-imidazol-4-yl)methyl]-1,2,4-triazol-3-yl]-7-morpholino-1,6-naphthyridin-5-yl]oxy]cyclohexyl]pyrimidin-2-amine], in the data set on FaDu cell line, the “Fraction … Hypoxic 0.2% O2” value is given as “D (D is 0 to 0.02)”. For the same compound, the “Fraction … Oxic 5% O2” value in the data set with FaDu cell line is reported as “D (D is 0 to 0.02)”. The EC50 in data set [1] (setting [3]), in data set [1] (setting [4]) and in data set [1] (setting [5]) was 1000 to 10000 nM in each case.

As to `CS(=O)(=O)Nc1cnc2cc(N3CCOCC3)nc(O[C@H]3CC[C@@H](Nc4ncc(N5CCN(CC(F)(F)F)CC5)cn4)CC3)c2c1` [LFA2017, N-[7-morpholino-5-[4-[[5-[4-(2,2,2-trifluoroethyl)piperazin-1-yl]pyrimidin-2-yl]amino]cyclohexoxy]-1,6-naphthyridin-3-yl]methanesulfonamide], the IC50 in data set [2] was under 100 nM.

In data set [2], `CN(C)CCOc1cnc(N[C@H]2CC[C@@H](Oc3nc(N4CCOCC4)cc4ncc(NS(C)(=O)=O)cc34)CC2)nc1` [LFA2024, N-[5-[4-[[5-[2-(dimethylamino)ethoxy]pyrimidin-2-yl]amino]cyclohexoxy]-7-morpholino-1,6-naphthyridin-3-yl]methanesulfonamide] gave an IC50 of 100 to 1000 nM.

In data set [2], `CS(=O)(=O)Nc1cnc2cc(N3CCOCC3)nc(O[C@H]3CC[C@@H](Nc4ncc(N5CCOCC5)cn4)CC3)c2c1` [LFA2029, N-[7-morpholino-5-[4-[(5-morpholinopyrimidin-2-yl)amino]cyclohexoxy]-1,6-naphthyridin-3-yl]methanesulfonamide] came in with an IC50 of under 100 nM.

`CN1CCN(c2ccc(N[C@H]3CC[C@@H](Oc4nc(N5CCOCC5)cc5ncc(NS(C)(=O)=O)cc45)CC3)nc2)CC1` [LFA2001, N-[5-[4-[[5-(4-methylpiperazin-1-yl)-2-pyridyl]amino]cyclohexoxy]-7-morpholino-1,6-naphthyridin-3-yl]methanesulfonamide] yielded a 50% inhibitory concentration (IC50) in data set [2] of under 100 nM.

In data set [2], `Oc1cnc2cc(N3CCOCC3)nc(O[C@H]3CC[C@@H](Nc4ncc(N5CCN(CC(F)F)CC5)cn4)CC3)c2c1` [LFA2012] showed an IC50 of under 100 nM.
